# Source: PubChem BioAssay (NCI)
#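 Dose response: 5 concentrations. Exposure: 48 h. Format: 96-well plates. Endpoint: linear interpolation; highest concentration if not reached. GI50 = concentration required for 50% inhibition of growth. TGI denotes the concentration required for complete inhibition of growth.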
# Experiments:
# Assay in all cases: growth of human tumour cells (NCI), 48 h
# UACC-62 melanoma = test system: UACC-62 melanoma
# SK-MEL-2 melanoma = test system: SK-MEL-2 melanoma
# MALME-3M melanoma = test system: MALME-3M melanoma
# CCRF-CEM leukemia = test system: CCRF-CEM leukemia
# M14 melanoma = test system: M14 melanoma
# MCF7 breast = test system: MCF7 breast
# RXF 393 renal = test system: RXF 393 renal
# NCI-H460 lung = test system: NCI-H460 lung
# T-47D breast = test system: T-47D breast
# TK-10 renal = test system: TK-10 renal
Compound,GI50 (UACC-62 melanoma),TGI (UACC-62 melanoma),GI50 (SK-MEL-2 melanoma),TGI (SK-MEL-2 melanoma),GI50 (MALME-3M melanoma),TGI (MALME-3M melanoma),GI50 (CCRF-CEM leukemia),TGI (CCRF-CEM leukemia),GI50 (M14 melanoma),TGI (M14 melanoma),GI50 (MCF7 breast),TGI (MCF7 breast),GI50 (RXF 393 renal),TGI (RXF 393 renal),GI50 (NCI-H460 lung),TGI (NCI-H460 lung),GI50 (T-47D breast),TGI (T-47D breast),GI50 (TK-10 renal),TGI (TK-10 renal)
CCCCCCCCOC(=O)c1c(C)[nH]c(/C=C2\N=C(c3ccc[nH]3)C=C2OC)c1C,0.0295 µM,0.0904 µM,0.0279 µM,0.0952 µM,0.641 µM,2.67 µM,< 0.0178 µM,> 27.4 µM,0.0351 µM,2.01 µM,0.0462 µM,1.67 µM,0.0535 µM,1.73 µM,0.0765 µM,11 µM,0.0556 µM,10.4 µM,0.0484 µM,7.29 µM
CCCCCN(CCCCC)CC(O)c1cc(Cl)ccc1OC (stereo not given),11.1 µM,25.4 µM,3.22 µM,14.2 µM,6.29 µM,21.3 µM,11.3 µM,36 µM,8.81 µM,22.6 µM,0.528 µM,2.66 µM,2.58 µM,7.87 µM,4.7 µM,18 µM,11.5 µM,26.9 µM,10.9 µM,24.1 µM
CC(C)c1nc(N(C)S(C)(=O)=O)nc(-c2ccc(F)cc2)c1/C=C/[C@@H](O)C[C@@H](O)CC(=O)O,42.1 µM,> 100 µM,26.2 µM,> 100 µM,> 100 µM,> 100 µM,> 100 µM,> 100 µM,> 100 µM,> 100 µM,> 100 µM,> 100 µM,41.5 µM,> 100 µM,> 100 µM,> 100 µM,> 100 µM,> 100 µM,> 100 µM,> 100 µM
CN1CCN(CCOc2ccc(-c3cnc4c(-c5cccc(F)c5)cnn4c3)cc2)CC1,1.73 µM,3.29 µM,1.98 µM,4.27 µM,1.66 µM,3.23 µM,2.11 µM,5.23 µM,1.95 µM,4.34 µM,1.51 µM,3.13 µM,1.66 µM,3.22 µM,1.72 µM,3.19 µM,1.52 µM,3.71 µM,2.07 µM,3.77 µM
CCC(C)Oc1nc2c(c(=O)n(C)c(=O)n2C)n1C (stereo not given),> 100 µM,> 100 µM,> 100 µM,> 100 µM,> 100 µM,> 100 µM,> 100 µM,> 100 µM,> 100 µM,> 100 µM,> 100 µM,> 100 µM,> 100 µM,> 100 µM,> 100 µM,> 100 µM,> 100 µM,> 100 µM,> 100 µM,> 100 µM
O=S1(=O)N(Cc2ccccc2)[C@@H](Cc2ccccc2)[C@H](O)[C@H](O)[C@H](Cc2ccccc2)N1Cc1ccccc1,2.86 µM,6.4 µM,2.8 µM,5.76 µM,2.75 µM,6.37 µM,5.96 µM,> 20 µM,3.04 µM,6.07 µM,4.77 µM,13.6 µM,2.6 µM,5.24 µM,3.41 µM,7.91 µM,3.95 µM,10.2 µM,3.77 µM,8.38 µM
CN(Cc1ccc(C(F)(F)F)cc1)CC(O)C(=O)Nc1ccc(Cl)cc1 (stereo not given),1.64 µM,3.13 µM,1.93 µM,3.62 µM,1.37 µM,2.81 µM,–,–,1.52 µM,3.05 µM,1.04 µM,2.36 µM,1.51 µM,2.96 µM,1.59 µM,3.21 µM,1.38 µM,2.87 µM,1.74 µM,3.38 µM
CN(C)CCNC(=O)c1ccc(-c2nc3ccc4[nH]ncc4c3c3c2C2CCC3C2)cc1 (stereo not given),0.898 µM,3.72 µM,1.55 µM,3.74 µM,1.67 µM,3.96 µM,1.01 µM,10.1 µM,0.809 µM,2.75 µM,0.889 µM,6.7 µM,0.267 µM,1.18 µM,1.56 µM,4.79 µM,2.25 µM,7.86 µM,0.723 µM,8.02 µM
Cc1cc(Cl)ccc1OCC(=O)Nc1nc(N)nc(N)n1,–,> 100 µM,–,> 100 µM,–,> 100 µM,–,> 100 µM,–,> 100 µM,–,> 100 µM,–,> 100 µM,–,> 100 µM,–,> 100 µM,–,> 100 µM
O=C1C2=C(C(=O)c3cnccc31)C1C=CC2CC1 (stereo not given),1.92 µM,3.4 µM,1.89 µM,3.52 µM,2.12 µM,4.45 µM,0.66 µM,–,1.94 µM,3.41 µM,1.81 µM,3.74 µM,1.51 µM,2.85 µM,8.48 µM,21.7 µM,0.374 µM,1.5 µM,5.54 µM,10.4 µM
CN(C)c1nc(=NCc2ccco2)ss1,–,> 70.5 µM,–,> 64.8 µM,–,54 µM,–,33.8 µM,–,> 53.8 µM,–,33.1 µM,–,16.1 µM,–,> 100 µM,–,20.1 µM,–,> 100 µM
NC(=O)c1cc(N(CCO)CCO)c([N+](=O)[O-])cc1[N+](=O)[O-],–,> 100 µM,–,> 100 µM,–,> 100 µM,–,> 100 µM,–,> 100 µM,–,> 100 µM,–,> 100 µM,–,> 100 µM,–,> 100 µM,–,> 100 µM
c1cc(-c2nnc(SSc3ncnc4nc[nH]c34)o2)ccn1,2.02 µM,> 100 µM,–,–,2.08 µM,> 100 µM,1.24 µM,> 100 µM,0.405 µM,> 100 µM,0.419 µM,> 100 µM,6.59 µM,> 100 µM,5.15 µM,> 100 µM,0.467 µM,> 100 µM,0.487 µM,> 100 µM
